From the supplement of paper PMC10307832

Legend:
Experiment in all cases: relative viability (nuclei count vs DMSO), 5 days (fraction); higher = more cells survive
NCI-H1793 = tested on: NCI-H1793
Procedure, shortened: (§1)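 Lung cancer cell lines were seeded in 1536-well plates and dosed by pin tool the next day, with either a single drug or a fixed anchor-drug dose combined with five library-drug doses (not always all listed) spaced in √10 steps. Five days later, one step fixed the cells and stained their nuclei (final 0.05% Triton X-100, 1% formaldehyde, 1 ug/ml Hoechst), and nuclei were counted on 4× images. Relative viability is the nuclei count in treated wells divided by the count in vehicle wells, and each value is the median of duplicate plates.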

NCI-H2170 = tested on: NCI-H2170
Procedure, shortened: as §1

HCC-78 = tested on: HCC-78
Procedure, shortened: as §1

SW 900 = tested on: SW 900
Procedure, shortened: as §1

NCI-H2085 = tested on: NCI-H2085
Procedure, shortened: as §1

COR-L 105 = tested on: COR-L 105
Procedure, shortened: as §1

NCI-H1944 = tested on: NCI-H1944
Procedure, shortened: as §1

NCI-H1666 = tested on: NCI-H1666
Procedure, shortened: as §1

EPLC-272H = tested on: EPLC-272H
Procedure, shortened: as §1

NCI-H358 = tested on: NCI-H358
Procedure, shortened: as §1

NCI-H1915 = tested on: NCI-H1915
Procedure, shortened: as §1

SK-LU-1 = tested on: SK-LU-1
Procedure, shortened: as §1

NCI-H460 = tested on: NCI-H460
Procedure, shortened: as §1

LC-2-ad = tested on: LC-2-ad
Procedure, shortened: as §1

A-427 = tested on: A-427
Procedure, shortened: as §1

UMC-11 = tested on: UMC-11
Procedure, shortened: as §1

HOP-62 = tested on: HOP-62
Procedure, shortened: as §1

LXF-289 = tested on: LXF-289
Procedure, shortened: as §1

HCC-366 = tested on: HCC-366
Procedure, shortened: as §1

LU99A = tested on: LU99A
Procedure, shortened: as §1

NCI-H2009 = tested on: NCI-H2009
Procedure, shortened: as §1

Molecule Nc1ccn([C@@H]2O[C@H](CO)[C@@H](O)[C@@H]2O)c(=O)n1 [Cytarabine] + O=C(CCCCCCC(=O)Nc1ccccc1)NO [Vorinostat] (partner 1 µM) has a relative viability (NCI-H1793; first compound 0.005 µM) of 0.631, a relative viability (NCI-H1793; first compound 0.01581 µM) of 0.607 and a relative viability (NCI-H1793; first compound 0.05 µM) of 0.643. For the same molecule, the relative viability (NCI-H1793; first compound 0.1581 µM) was 0.352, the relative viability (NCI-H1793; first compound 0.5 µM) was 0.186 and the relative viability (NCI-H2170; first compound 0.005 µM) was 0.823. For the same molecule, the relative viability (NCI-H2170; first compound 0.01581 µM) was 0.65, the relative viability (NCI-H2170; first compound 0.05 µM) was 0.621 and the relative viability (NCI-H2170; first compound 0.1581 µM) was 0.4. The relative viability (NCI-H2170; first compound 0.5 µM) was 0.314, the relative viability (HCC-78; first compound 0.005 µM) was 0.498 and the relative viability (HCC-78; first compound 0.01581 µM) was 0.471. The relative viability (HCC-78; first compound 0.05 µM) was 0.402, the relative viability (HCC-78; first compound 0.1581 µM) was 0.348 and the relative viability (HCC-78; first compound 0.5 µM) was 0.263. For the same molecule, the relative viability (SW 900; first compound 0.005 µM) was 0.399, the relative viability (SW 900; first compound 0.01581 µM) was 0.491 and the relative viability (SW 900; first compound 0.05 µM) was 0.376. For the same molecule, the relative viability (SW 900; first compound 0.1581 µM) was 0.182, the relative viability (SW 900; first compound 0.5 µM) was 0.166 and the relative viability (NCI-H2085; first compound 0.005 µM) was 0.698. The relative viability (NCI-H2085; first compound 0.01581 µM) was 0.79, the relative viability (NCI-H2085; first compound 0.05 µM) was 0.744 and the relative viability (NCI-H2085; first compound 0.1581 µM) was 0.618. The relative viability (NCI-H2085; first compound 0.5 µM) was 0.635, the relative viability (COR-L 105; first compound 0.005 µM) was 0.816 and the relative viability (COR-L 105; first compound 0.01581 µM) was 0.79. It also gave a relative viability (COR-L 105; first compound 0.05 µM) of 0.55, a relative viability (COR-L 105; first compound 0.1581 µM) of 0.583 and a relative viability (COR-L 105; first compound 0.5 µM) of 0.418. The relative viability (NCI-H1944; first compound 0.005 µM) was 0.508, the relative viability (NCI-H1944; first compound 0.01581 µM) was 0.326 and the relative viability (NCI-H1944; first compound 0.05 µM) was 0.309. The relative viability (NCI-H1944; first compound 0.1581 µM) was 0.203, the relative viability (NCI-H1944; first compound 0.5 µM) was 0.159 and the relative viability (NCI-H1666; first compound 0.005 µM) was 0.948. It also gave a relative viability (NCI-H1666; first compound 0.01581 µM) of 0.843, a relative viability (NCI-H1666; first compound 0.05 µM) of 0.768 and a relative viability (NCI-H1666; first compound 0.1581 µM) of 0.733. It also gave a relative viability (NCI-H1666; first compound 0.5 µM) of 0.619, a relative viability (EPLC-272H; first compound 0.005 µM) of 0.461 and a relative viability (EPLC-272H; first compound 0.01581 µM) of 0.393. It also gave a relative viability (EPLC-272H; first compound 0.05 µM) of 0.398, a relative viability (EPLC-272H; first compound 0.1581 µM) of 0.174 and a relative viability (EPLC-272H; first compound 0.5 µM) of 0.155. It also gave a relative viability (NCI-H358; first compound 0.005 µM) of 0.632, a relative viability (NCI-H358; first compound 0.01581 µM) of 0.557 and a relative viability (NCI-H358; first compound 0.05 µM) of 0.538. It also gave a relative viability (NCI-H358; first compound 0.1581 µM) of 0.178, a relative viability (NCI-H358; first compound 0.5 µM) of 0.113 and a relative viability (NCI-H1915; first compound 0.005 µM) of 0.477. The relative viability (NCI-H1915; first compound 0.01581 µM) was 0.424, the relative viability (NCI-H1915; first compound 0.05 µM) was 0.375 and the relative viability (NCI-H1915; first compound 0.1581 µM) was 0.318. The relative viability (NCI-H1915; first compound 0.5 µM) was 0.235, the relative viability (SK-LU-1; first compound 0.005 µM) was 0.509 and the relative viability (SK-LU-1; first compound 0.01581 µM) was 0.665. For the same molecule, the relative viability (SK-LU-1; first compound 0.05 µM) was 0.632, the relative viability (SK-LU-1; first compound 0.1581 µM) was 0.479 and the relative viability (SK-LU-1; first compound 0.5 µM) was 0.422. For the same molecule, the relative viability (NCI-H460; first compound 0.005 µM) was 0.422, the relative viability (NCI-H460; first compound 0.01581 µM) was 0.436 and the relative viability (NCI-H460; first compound 0.05 µM) was 0.259. For the same molecule, the relative viability (NCI-H460; first compound 0.1581 µM) was 0.0538, the relative viability (NCI-H460; first compound 0.5 µM) was 0.0412 and the relative viability (LC-2-ad; first compound 0.005 µM) was 0.766. It also gave a relative viability (LC-2-ad; first compound 0.01581 µM) of 0.691, a relative viability (LC-2-ad; first compound 0.05 µM) of 0.67 and a relative viability (LC-2-ad; first compound 0.1581 µM) of 0.646. For the same molecule, the relative viability (LC-2-ad; first compound 0.5 µM) was 0.436, the relative viability (A-427; first compound 0.005 µM) was 0.758 and the relative viability (A-427; first compound 0.01581 µM) was 0.636. The relative viability (A-427; first compound 0.05 µM) was 0.325, the relative viability (A-427; first compound 0.1581 µM) was 0.339 and the relative viability (A-427; first compound 0.5 µM) was 0.306. The relative viability (UMC-11; first compound 0.005 µM) was 0.285, the relative viability (UMC-11; first compound 0.01581 µM) was 0.308 and the relative viability (UMC-11; first compound 0.05 µM) was 0.258. The relative viability (UMC-11; first compound 0.1581 µM) was 0.19, the relative viability (UMC-11; first compound 0.5 µM) was 0.183 and the relative viability (HOP-62; first compound 0.005 µM) was 0.633. For the same molecule, the relative viability (HOP-62; first compound 0.01581 µM) was 0.406, the relative viability (HOP-62; first compound 0.05 µM) was 0.437 and the relative viability (HOP-62; first compound 0.1581 µM) was 0.115. For the same molecule, the relative viability (HOP-62; first compound 0.5 µM) was 0.0936, the relative viability (LXF-289; first compound 0.005 µM) was 0.736 and the relative viability (LXF-289; first compound 0.01581 µM) was 0.856. For the same molecule, the relative viability (LXF-289; first compound 0.05 µM) was 0.639, the relative viability (LXF-289; first compound 0.1581 µM) was 0.464 and the relative viability (LXF-289; first compound 0.5 µM) was 0.27. The relative viability (HCC-366; first compound 0.005 µM) was 0.31, the relative viability (HCC-366; first compound 0.01581 µM) was 0.347 and the relative viability (HCC-366; first compound 0.05 µM) was 0.301. For the same molecule, the relative viability (HCC-366; first compound 0.1581 µM) was 0.087, the relative viability (HCC-366; first compound 0.5 µM) was 0.0576 and the relative viability (LU99A; first compound 0.005 µM) was 0.451. For the same molecule, the relative viability (LU99A; first compound 0.01581 µM) was 0.468, the relative viability (LU99A; first compound 0.05 µM) was 0.554 and the relative viability (LU99A; first compound 0.1581 µM) was 0.455. For the same molecule, the relative viability (LU99A; first compound 0.5 µM) was 0.375, the relative viability (NCI-H2009; first compound 0.005 µM) was 0.751 and the relative viability (NCI-H2009; first compound 0.01581 µM) was 0.698. The relative viability (NCI-H2009; first compound 0.05 µM) was 0.71, the relative viability (NCI-H2009; first compound 0.1581 µM) was 0.52 and the relative viability (NCI-H2009; first compound 0.5 µM) was 0.198.
